Data published in patent US11674965B2, “Method for preparing and analyzing fluorescent compounds in plasma” (MediBeacon, Inc., priority 2017, dated 2023).
Each block holds one compound with its values, some of them ahead of it.

Assays:
[1] = cited from earlier work
[2] = Freeze/thaw stability of MB-102 in plasma samples (three cycles, −80° C. to room temperature), HPLC with fluorescence detection; format: physicochemical, human; settings: for % Recovered / Mean Concentration: 3 Freeze/Thaw cycles
Method: (§1) For sample preparation by direct dilution, calibration standards containing 0.4, 1.0, 2.0, 4.0, 10.0, 16.0, 40.0, 100.0, 200.0, 400.0 ng/mL and quality controls at low, mid, and high level of MB-102 were prepared in 1% human plasma in PBS on the day of the validation study or sample analysis. The MB-102 dosing solution (18.6 mg/mL) used in the clinical study was diluted 1/100 first with 1% human plasma in PBS to form a stock solution of 186 μg/mL MB-102. This stock solution is diluted further with 1% human plasma in PBS to form a calibration standard working stock of 2000 ng/mL MB-102 for preparation of calibration standards. A QC working stock at (300 ng/mL) was also prepared from the 186 μg/mL MB-102 stock by dilution with 1% plasma in PBS. The low, mid, and high levels of quality controls were prepared from this QC working stock by dilution with 1% human plasma in PBS.
(§2) For the samples being analyzed by direct dilution, 10 μL of plasma sample (thawed to room temperature and mixed thoroughly) was diluted with 990 μL 1×PBS, mixed thoroughly for about 10 minutes, and centrifuged at 1000 rpm for 2 minutes. It was directly analyzed by HPLC.
(§3) Analyses were performed on a Waters Acquity UPLC H Class Chromatography System, equipped with column heater, sample heater/cooler, vacuum degasser, autosampler, fluorescence detector, and pump capable of delivering a binary gradient. An HPLC analytical column, Phenomenex Luna C18 (2), 4.6×250 mm, 5 μm, 100 Å (Phenomenex, Cat. No. 00G-4252-E0, S/N H15-133556), and a Security Guard Cartridge C18, 4×3 mm ID, 5 μm (Phenomenex, Cat. No. KJ0-4282) were used for the analysis. The Waters Empower 3 software equipped with the UPLC system was used for assay setup, analysis monitoring, and data processing. Two mobile phases, Mobile Phase A: 0.1% Trifluoroacetic acid in water (Fisher, Optima® Grade) and Mobile Phase B: 0.1% Trifluoroacetic acid in acetonitrile (Fisher Scientific, Optima® Grade) were used. The column temperature was set at 30° C., the autosampler temperature was set at 5° C., the excitation wavelength was set at 434 nm and the detection/emission wavelength was set at 556 nm. The counting rate was set at 5 point/sec; the PMT gain was set at 50; the flow cell temperature was ambient; the injection volume was 10 μL. MB-102 elutes at about 3.6 minutes using the gradient shown.
(§4) Using this HPLC method and sample preparation described herein, a validation study was carried out to determine the precision, accuracy, linearity, reproducibility, plasma and sample solution stability, freeze-thaw stability, lowest limits of quantitation, and specificity. The acceptance criterion was ±15% data deviation from normal values excepted at the lowest limit of quantitation (LLOQ) where it was set at ±20%. Samples were analyzed both in-house and at a GMP contract lab to ensure both the validity of the method and accuracy of the results.
(§5) MB-102 stability during sample handling upon long term storage of plasma samples (frozen at −80° C.) and short-term storage (bench top ambient temperature with/without light exposure, and 2-8° C.) of plasma solution was evaluated. Plasma samples were tested for three freeze/thaw cycles (−80° C. to room temperature). The stability of MB-102 in plasma solution at room temperature with/without light exposure, at 2-8° C., and at auto-sampler temperature (5° C.) was evaluated for time intervals of 24 and 48 hours.

[3] = Short-term stability of MB-102 in plasma solution (1% plasma/PBS) at 4° C. or room temperature with/without light, HPLC with fluorescence detection; format: physicochemical, human
Method: as §1, §2, §3, §4, §5

[4] = Pharmacokinetic analysis of MB-102 in plasma of clinical study participants, iohexol co-dosed as reference marker; format: in vivo, human
Method: as §2
as §3, with “The column temperature was set at 30° C., the autosampler temperature was set at 5° C., the excitation wavelength was set at 434 nm and the detection/emission wavelength was set at 556 nm. The counting rate was set at 5 point/sec; the PMT gain was set at 50; the flow cell temperature was ambient; the injection volume was 10 μL. MB-102 elutes at about 3.6 minutes using the gradient shown.” left out
In support of the clinical studies to evaluate the utility of MB-102 for kidney function monitoring via transdermal fluorescence sensing, the plasma samples were prepared from blood samples collected at 0, 5, 10, 15, 30, 60, 90, 120, 180, 240, 300, 360, 480, 600, and 720 minutes of each study participant. […]

[5] = QCs stored at 4° C. for 48 hours, MB-102 3.7 ng/mL
[6] = QCs stored at 4° C. for 48 hours, MB-102 37.9 ng/mL
[7] = QCs stored at 4° C. for 48 hours, MB-102 372.6 ng/mL
[8] = QCs stored at RT with light, MB-102 3.7 ng/mL
[9] = QCs stored at RT with light, MB-102 37.9 ng/mL
[10] = QCs stored at RT with light, MB-102 372.6 ng/mL
[11] = QCs stored at RT without light, MB-102 3.7 ng/mL
[12] = QCs stored at RT without light, MB-102 37.9 ng/mL
[13] = QCs stored at RT without light, MB-102 372.6 ng/mL
[14] = Sample solution at 4° C. for 48 hours, MB-102 1.76 ng/mL
[15] = Sample solution at 4° C. for 48 hours, MB-102 8.81 ng/mL
[16] = Sample solution at 4° C. for 48 hours, MB-102 61.87 ng/mL

Structure (SMILES): CC(=O)N(CC(O)CO)c1c(I)c(C(=O)NCC(O)CO)c(I)c(C(=O)NCC(O)CO)c1I (centres unmarked) [Iohexol, iohexol]
metabolism ([1]; patient): not metabolized | route of elimination ([1]; without tubular renal secretion or reabsorption): entirely eliminated by simple glomerular filtration

% Recovered ([2]; MB-102 1.76 ng/mL): 101.7% | Mean Concentration ([2]; MB-102 1.76 ng/mL): 0.00179 µg/mL | % Recovered ([2]; MB-102 8.81 ng/mL): 100.0% | Mean Concentration ([2]; MB-102 8.81 ng/mL): 0.00881 µg/mL | % Recovered ([2]; MB-102 61.87 ng/mL): 100.8% | Mean Concentration ([2]; MB-102 61.87 ng/mL): 0.06234 µg/mL | stability over freeze/thaw cycles ([2]; three freeze/thaw cycles, plasma at −80° C.): very stable | % Recovered [3, 5]: 101.1% | Mean Concentration [3, 5]: 0.00374 µg/mL | % Recovered [3, 6]: 99.1% | Mean Concentration [3, 6]: 0.03755 µg/mL | % Recovered [3, 7]: 100.2% | Mean Concentration [3, 7]: 0.3735 µg/mL | % Recovered [3, 8]: 101.6% | Mean Concentration [3, 8]: 0.00376 µg/mL | % Recovered [3, 9]: 96.0% | Mean Concentration [3, 9]: 0.0364 µg/mL | % Recovered [3, 10]: 97.9% | Mean Concentration [3, 10]: 0.36459 µg/mL | % Recovered [3, 11]: 104.6% | Mean Concentration [3, 11]: 0.00387 µg/mL | % Recovered [3, 12]: 98.0% | Mean Concentration [3, 12]: 0.03715 µg/mL | % Recovered [3, 13]: 100.0% | Mean Concentration [3, 13]: 0.37258 µg/mL | % Recovered [3, 14]: 99.4% | Mean Concentration [3, 14]: 0.00175 µg/mL | % Recovered [3, 15]: 98.3% | Mean Concentration [3, 15]: 0.00866 µg/mL | % Recovered [3, 16]: 98.3% | Mean Concentration [3, 16]: 0.06084 µg/mL | degradation of MB-102 ([3]; solution stored at room temperature with light for 48 hours): 1-2% | sample solution stability ([3]; stored at 4° C. for up to 48 hours): very stable | sample solution stability ([3]; stored at room temperature without light for up to 48 hours): very stable | clearance rate ([4]; 12 subjects, FIG. 7): varies among patients | clearance rate compared with iohexol ([4]; three subjects, iohexol co-dosed, FIGS. 8a-8c): parallel to that of iohexol
Structure (SMILES): Nc1nc(C(=O)N[C@H](CO)C(=O)O)c(N)nc1C(=O)N[C@H](CO)C(=O)O [MB-102, (2R,2′R)-2,2′-((3,6-diaminopyrazine-2,5-dicarbonyl)bis(azanediyl))bis(3-hydroxypropanoic acid)]
